Assay results published in patent US20170368052A1, “CRYSTAL FORMS OF APOMORPHINE AND USES THEREOF” (NeuroDerm, Ltd., priority 2014, published 2017).
“Also recorded” adds a separate entry of the source. Structures can show the parent of a compound that is named as a salt.

Assays:
[1] = cited from earlier work; for pKa: amine bases used for salt release in IPA; for Literature pKa: bases of the base screen in n-BuOH
[2] = Stability study of the isolated solid to air and light (HPLC profile); assay type: physicochemical
Description: The 3-amino-1-propanol mediated salt release of apomorphine was scaled to 10 g in IPA (10 vol), and in order to aid the mobility of the reaction, the addition of the 3-amino-1-propanol was performed at 40-45° C. […] The slurry was cooled and aged over 16 h at 18 to 23° C.
Samples of solids isolated from an IPA recrystallization of the free base, salt released via the 3-amino-1-propanol route were monitored by their color change and their HPLC profile. The HPLC profiles are described in Table 8.

[3] = Stability of the reaction mixture at 40-45° C. (HPLC profile); assay type: physicochemical; details: 40° C.
Description: The effect of adding ascorbic acid-6-palmitate on stability of the reaction mixture and the isolated solid was determined in a larger scale reaction (A0513-68). On a 10 g scale, ascorbic acid-6-palmitate (0.01 wt) was added to a flask with the apomorphine hydrochloride salt and IPA (10 vol). 3-amino-1-propanol (2.5 ml, 1.1 eq, 0.25 vol) was added at 40-45° C., and a slurry was present throughout. The slurry was stirred at 40-45° C. for 2 h; at this point 10% of the reaction mixture was removed for an extended stability study at 40-45° C. The remainder of the reaction was cooled and aged over 16 h to 18-23° C. The solid was filtered and washed with IPA (2×3 vol) and resulted a white solid (liquor was pale yellow). The solid was dried under a flow of nitrogen for 30 min. The yield was 7.03 g (79.8%, corrected for 18.3% w/w IPA, approximately 1 eq), 100% area by HPLC (Note: 10% of the reaction mixture was removed for the stability study, therefore this yield is at the expected approximately 90% level, and the combined mother liquor and washes contained 7.6% of theoretical yield by assay). In this material the ascorbic acid-6-palmitate and 3-amino-1-propanol in the product were below detectable levels by ^1H NMR analysis.
Stability of the reaction mixture was compared with and without ascorbic acid-6-palmitate. Each reaction was held at 40-45° C. and both the color and the HPLC profile monitored. HPLC purity profiles are shown on Table 6.

[4] = Stability of the reaction mixture at reflux in IPA with/without ascorbic acid-6-palmitate (HPLC); assay type: physicochemical
Description: In this case, the base was added under reflux and the procedure compared with and without ascorbic acid-6-palmitate as an antioxidant (Table 7).

[5] = Vacuum oven drying, retained solvent content; assay type: physicochemical; details: for Solvent content post-drying: vacuum oven, 45° C. for 24 h
Description: Four samples (B, G, H and O) were transferred to a vacuum oven and dried at 45° C. for 24 h.

[6] = Antioxidant additives: stability of apomorphine free base in MeOH solution (HPLC); assay type: physicochemical; details: MeOH (10 vol)
Description: However, the free base in solution is susceptible to aerial oxidation.
The vial was flushed with air, sealed, and stirred. The reactions were compared with a control reaction having no antioxidant. • A—in MeOH (10 vol) (control reaction) • B—ascorbic acid-6-palmitate (10 wt %) in MeOH (10 vol) • C—BHT (10 wt %) in MeOH (10 vol)
Samples were analyzed by HPLC. […] The HPLC profile just after addition of the antioxidant was of similar purity for each sample. After 24 h, sample B had precipitated a small amount of solid in a pale green solution. […] Key impurities elute early in the HPLC profile at RRT 0.15 and 0.18. In the samples without ascorbic acid-6-palmitate these impurities were >1.5% area.

[7] = Solubility of apomorphine free base and HCl salt in solvents; assay type: physicochemical
Description: This material was used in 50 mg portions (A0513-06).
The free base is fully soluble in 5 vol of either MeOH, EtOH, or n-BuOH. […] The free base precipitated as an oil from most solvents, particularly after heating. An apparently crystalline solid formed following dissolution of the free base and cooling in 1,4-dioxane.

[8] = Stability to air (color visually monitored); assay type: physicochemical; details: visual
Description: Samples of free base isolated from water, IPA, and MeOAc were retained open to air and the color visually monitored (FIG. 2). Over the course of 2 days, the products isolated from organic solvents discolored to green solids. […]

[9] = isolated stability to air and light (2 days)
[10] = isolated stability to air and light (5 days)
[11] = isolated stability to air and light (17 days)
[12] = from reaction containing asc, stability of solid in air and light (5 days)
[13] = from reaction containing asc, stability of solid in air and light (14 days)
[14] = isolated from reaction containing asc (1 day)
[15] = ascorbic acid-6-palmitate, 24 h
[16] = ascorbic acid-6-palmitate, 48 h
[17] = ascorbic acid-6-palmitate, 120 h
[18] = no ascorbic acid-6-palmitate, solution at reflux
[19] = no ascorbic acid-6-palmitate, liquors
[20] = no ascorbic acid-6-palmitate, isolated solid
[21] = with ascorbic acid-6-palmitate, liquors
[22] = with ascorbic acid-6-palmitate, isolated solid

NCCCO [3-amino-1-propanol]
pKa [1]: 10.23

CC(C)O.CN1CCc2cccc3c2[C@H]1Cc1ccc(O)c(O)c1-3 [A0513-64-05, apomorphine free base mono-IPA solvate]
% area: RRT 1.00 ([2]; isolated solid, no ascorbic acid-6-palmitate, output): 100.00 % area | % area: RRT 1.00 [2, 9]: 99.98 % area | % area: RRT 1.71 [2, 9]: 0.02 % area | % area: RRT 1.00 [2, 10]: 99.95 % area | % area: RRT 1.71 [2, 10]: 0.03 % area | % area: RRT 1.76 [2, 10]: 0.02 % area | % area: RRT 0.41 [2, 11]: 0.03 % area | % area: RRT 1.00 [2, 11]: 99.92 % area | % area: RRT 1.71 [2, 11]: 0.02 % area | % area: RRT 1.76 [2, 11]: 0.03 % area

CC(C)O.CN1CCc2cccc3c2[C@H]1Cc1ccc(O)c(O)c1-3 [A0513-68-01, apomorphine free base mono-IPA solvate]
% area: RRT 1.00 [2, 12]: 99.97 % area | % area: RRT 1.71 [2, 12]: 0.03 % area | % area: RRT 0.41 [2, 13]: 0.01 % area | % area: RRT 1.00 [2, 13]: 99.92 % area | % area: RRT 1.71 [2, 13]: 0.03 % area | % area: RRT 1.76 [2, 13]: 0.02 % area | % area: RRT 2.02 [2, 13]: 0.02 % area | % area: RRT 1.00 [2, 14]: 99.98 % area | % area: RRT 1.71 [2, 14]: 0.02 % area

CN1CCc2cccc3c2C1Cc1ccc(O)c(O)c1-3 (stereo not drawn) [A0513-68A-03]
% area: RRT 1.00 [3, 15]: 99.93 % area | % area: RRT 1.71 [3, 15]: 0.05 % area | % area: RRT 1.76 [3, 15]: 0.03 % area | % area: RRT 1.00 [3, 16]: 99.96 % area | % area: RRT 1.71 [3, 16]: 0.04 % area | % area: RRT 1.00 [3, 17]: 99.86 % area | % area: RRT 1.25 [3, 17]: 0.04 % area | % area: RRT 1.71 [3, 17]: 0.06 % area | % area: RRT 1.76 [3, 17]: 0.04 % area

CN1CCc2cccc3c2C1Cc1ccc(O)c(O)c1-3 (stereo not drawn) [A0513-72-01]
% area: RRT 0.74 ([3]; poor purging, 24 h): 0.22 % area | % area: RRT 1.00 ([3]; poor purging, 24 h): 98.18 % area | % area: RRT 1.09 ([3]; poor purging, 24 h): 0.13 % area | % area: RRT 1.22 ([3]; poor purging, 24 h): 0.44 % area | % area: RRT 1.25 ([3]; poor purging, 24 h): 0.10 % area | % area: RRT 1.37 ([3]; poor purging, 24 h): 0.15 % area | % area: RRT 1.50 ([3]; poor purging, 24 h): 0.07 % area | % area: RRT 0.74 ([3]; poor purging, 48 h): 0.10 % area | % area: RRT 1.00 ([3]; poor purging, 48 h): 94.66 % area | % area: RRT 1.09 ([3]; poor purging, 48 h): 2.32 % area | % area: RRT 1.22 ([3]; poor purging, 48 h): 0.42 % area | % area: RRT 1.25 ([3]; poor purging, 48 h): 1.46 % area | % area: RRT 1.37 ([3]; poor purging, 48 h): 0.16 % area | % area: RRT 1.50 ([3]; poor purging, 48 h): 0.10 % area

CN1CCc2cccc3c2C1Cc1ccc(O)c(O)c1-3 (stereo not drawn) [A0513-76-01]
% area: RRT 1.00 ([3]; effective purging, 24 h): 99.90 % area | % area: RRT 1.71 ([3]; effective purging, 24 h): 0.06 % area | % area: RRT 1.76 ([3]; effective purging, 24 h): 0.04 % area | % area: RRT 1.00 ([3]; effective purging, 96 h): 99.90 % area | % area: RRT 1.71 ([3]; effective purging, 96 h): 0.06 % area | % area: RRT 1.76 ([3]; effective purging, 96 h): 0.04 % area

CN1CCc2cccc3c2C1Cc1ccc(O)c(O)c1-3 (stereo not drawn) [A0513-94-01]
% area: RRT 1.00 [4, 18]: 99.56 % area | % area: RRT 1.09 [4, 18]: 0.05 % area | % area: RRT 1.25 [4, 18]: 0.06 % area | % area: RRT 1.71 [4, 18]: 0.06 % area | % area: RRT 1.76 [4, 18]: 0.04 % area

CN1CCc2cccc3c2C1Cc1ccc(O)c(O)c1-3 (stereo not drawn) [A0513-94-02]
% area: RRT 1.00 [4, 19]: 92.99 % area | % area: RRT 1.09 [4, 19]: 1.79 % area | % area: RRT 1.25 [4, 19]: 0.57 % area | % area: RRT 1.29 [4, 19]: 1.20 % area | % area: RRT 1.50 [4, 19]: 0.22 % area | % area: RRT 1.71 [4, 19]: 0.34 % area | % area: RRT 1.76 [4, 19]: 0.43 % area

CC(C)O.CN1CCc2cccc3c2C1Cc1ccc(O)c(O)c1-3 (stereo not drawn) [A0513-94-03]
% area: RRT 1.00 [4, 20]: 99.81 % area | % area: RRT 1.25 [4, 20]: 0.13 % area | % area: RRT 1.71 [4, 20]: 0.02 % area

CN1CCc2cccc3c2C1Cc1ccc(O)c(O)c1-3 (stereo not drawn) [A0513-98-02]
% area: RRT 1.00 [4, 21]: 95.62 % area | % area: RRT 1.09 [4, 21]: 1.25 % area | % area: RRT 1.25 [4, 21]: 0.19 % area | % area: RRT 1.29 [4, 21]: 0.61 % area | % area: RRT 1.50 [4, 21]: 0.12 % area | % area: RRT 1.71 [4, 21]: 0.45 % area | % area: RRT 1.76 [4, 21]: 0.34 % area

CC(C)O.CN1CCc2cccc3c2C1Cc1ccc(O)c(O)c1-3 (stereo not drawn) [A0513-98-03]
% area: RRT 1.00 [4, 22]: 99.93 % area | % area: RRT 1.25 [4, 22]: 0.07 % area

C[N+](C)(C)CC(=O)O [Betaine]
Literature pKa [1]: 12.16

CN1CCc2cccc3c2[C@H]1Cc1ccc(O)c(O)c1-3 [H]
Solvent content post-drying [5]: 20.0 % w/w

CN(C1CCCCC1)C1CCCCC1 [N-methyl-dicyclohexyl amine]
pKa [1]: 9.25

CN1CCc2cccc3c2[C@H]1Cc1ccc(O)c(O)c1-3 [O]
Solvent content post-drying [5]: 7.8 % w/w

CN1CCc2cccc3c2[C@H]1Cc1ccc(O)c(O)c1-3 [Sample B]
HPLC purity compared between samples ([6]; after 24 h): higher than for either A or C | HPLC purity compared between samples ([6]; after 72 h): highest purity | Solvent content post-drying [5]: 23.4 % w/w

CN1CCc2cccc3c2[C@H]1Cc1ccc(O)c(O)c1-3 [Sample G]
IPA content remaining ([5]; 75° C. for 17 h under vacuum): 17.4 % w/w

CC1(C)CCCC(C)(C)N1 [TMP, 2,2,6,6-tetramethylpiperidine]
pKa [1]: 11.07 | Literature pKa [1]: 11.07

CN1CCc2cccc3c2[C@H]1Cc1ccc(O)c(O)c1-3 [apomorphine hydrochloride]
Solubility in methanol ([7]; listed as HCl salt, hydrochloride): the only solvent that dissolved any significant amount; also recorded: moderate solubility | Solubility in n-BuOH ([7]; up to 20 vol at reflux): did not dissolve

CN1CCc2cccc3c2[C@H]1Cc1ccc(O)c(O)c1-3 [apomorphine]
Color of solid retained open to air ([8]; over 2 days): did not appear to change | Time over which the solid gradually discolored open to air [8]: about 4 weeks | Solubility in EtOH ([7]; 5 vol, 50 mg portions): fully soluble | Solubility in MeOH ([7]; 5 vol, 50 mg portions): fully soluble | Solubility in n-BuOH ([7]; 5 vol, 50 mg portions): fully soluble
